Data as given in patent US12496284B2, “Use of itaconate and its derivatives/analogues to induce hair growth” (The Johns Hopkins University, priority 2019, dated 2025).
“Also recorded” adds a separate entry of the source.

How the values were obtained:
[1] = system: C57BL6/J mice; assay: Hair growth (telogen to anagen transition) after topical treatment of shaved mice; format: in vivo; conditions: for hair growth compared with JAK inhibitors: 3% each diluted in DMSO, topical, FIG. 9
Method: All adult wild-type (C57BL6/J) mice were approximate 8.5 weeks old and obtained from Jackson Labs (#00664). All animals were maintained in an AAALAC (Accreditation of Laboratory Animal Care International)—approved facility at Johns Hopkins University. All experimental procedures were approved by the Institutional Animal Care and Use Committee at Johns Hopkins under the protocol #MO17M298.
(§1) Adult C57BL6/J mice were treated during the refractory period of hair dormancy (telogen) to allow for hair growth (anagen) re-initiation. To determine the anagen re-entry, mice were grossly observed for skin thickening and darkening. Mice were shaved on their dorsal side and the left half the skin was topically treated with either vehicle (DMSO) or prodrug (20% IS-100-142 (compound 5)) with the right side untreated. The treatment regimen was once every other day for a total of two treatment cycles.
In one aspect, the presently disclosed subject matter is directed to compounds that might be able to enhance hair growth. To this end, the ability of dimethyl itaconate to induce the transition from the resting phase of the hair cycle, telogen, to the growing phase of the hair cycle, anagen, in wild type mice was tested.
Finally, the ability of compound 5 to also induce hair growth as observed for DI was tested. […] Here mice were treated as above, except the left side was treated with either compound 5 or DMSO and the right side was left untreated. The small amount of hair growth in the DMSO treated mouse was from the natural anagen cycle beginning.
as §1, with “All adult wild-type (C57BL6/J) mice were approximate 8.5 weeks old and obtained from Jackson Labs. Animals were fed standard mouse diet. […] Adult” for “Adult”, “right” for “left”, “dimethyl itaconate (20%) or with 1% compound 5, 2% compound 5 or 5% compound 5” for “prodrug (20% IS-100-142 (compound 5))”, “left” for “right”, “or three treatments with similar results.” for “treatment cycles.”

[2] = system: TLR3/IL6/STAT3 axis; assay: Treatment of human keratinocytes (NHEKs) with itaconate prodrugs, poly(I:C) challenge, qRT-PCR; format: cell-based; conditions: NHEKs pre-treated 2 days, then poly(I:C) for 24 hours, mRNA by qRT-PCR, FIG. 4, FIG. 6
Method: Neonatal human epidermal keratinocytes (NHEKs) isolates from neonatal foreskin were seeded at a density of 100,000 cells per well and were maintained in KGM supplemented with growth factors (KGM-GOLD Bullet kit, #192060). Prodrugs were reconstituted in DMSO. NHEKs were pre-treated with either vehicle (0.1% DMSO) or prodrug. After 2 days, NHEKs were treated with […] poly(I:C) for 24 hours.
Total RNA was isolated and purified from cultured NHEKs using the RNeasy Mini Kit (Qiagen, Valencia, CA, #74106). After assessing RNA purity and concentrations using a NanoDrop 2000 UV-Vis spectrophotometer, RNA was converted to cDNA using a reverse-transcription kit and random hexamer primers (Applied Biosystems, #4368814). mRNA expression was determined by qRT-PCR using gene-specific, fluorophore-based TaqMan probes and universal master mix (Applied Biosystems, #4366072). The qRT-PCR reactions were multiplexed using target and reference gene (RPLPO) probes. Relative mRNA fold changes were then quantified using the […] method.
Next, whether itaconate derivatives, such as itaconate prodrugs, have this same capacity was tested. To screen for compounds, those that behaved in vitro with similar properties to itaconate were evaluated. First, the molecular effect of dimethyl itaconate (DI) to blunt dsRNA (PIC; Polyinosinic:polycytidylic acid) effect at increasing TLR3, IL-6, and STAT3 expression was tested.
Next, the ability of synthesized itaconate prodrugs to behave similarly in the in vitro assay was tested. […] Methods are as above, but substituting the […].

[3] = Mouse skin penetration in Alopecia model; format: in vivo; conditions: dose 5% w/v
Source text: Referring now to FIG. 12, mouse skin penetration in an Alopecia model for IS-100-142 (compound 5) (left panel) and monomethyl itaconate (right panel) is shown.

intact prodrug levels, skin versus plasma ([3]; topical application in DMSO, FIG. 12 left panel)	monomethyl itaconate levels, skin versus plasma ([3]; topical application of IS-100-142 in DMSO, FIG. 12 right panel)	SMILES	transition of hair follicle from telogen to anagen (hair growth) ([1]; 1%, 2% or 5% compound 5 topical on right half of skin, once every other day, two or three treatments, FIG. 8)	hair growth compared with JAK inhibitors [1]	hair growth ([1]; 20% compound 5 in DMSO, topical on left half of shaved dorsal skin, once every other day, two treatment cycles, FIG. 7)	inhibition of dsRNA (poly(I:C)) effect at increasing TLR3, IL-6 and STAT3 expression (downstream gene targets TLR3, IL6, STAT3, WNT7B) [2]	inhibition of dsRNA (poly(I:C)) effect at increasing TLR3, IL-6 and STAT3 expression (downstream gene targets TLR3, IL6, STAT3, WNT7B) ([2]; listed as IS-100-142)	transition from telogen (resting phase) to anagen (growing phase) of the hair cycle ([1]; 20% dimethyl itaconate, wild type mice, FIG. 5)	inhibition of dsRNA (poly(I:C)) effect at increasing TLR3, IL-6 and STAT3 expression (downstream gene targets TLR3, IL6, STAT3, WNT7B) ([2]; listed as DI)
higher in skin versus plasma	higher in skin versus plasma	C=C(CC(=O)OC)C(=O)OCOC(=O)OC(C)C [Compound 5]	promote transition of hair follicle from telogen (quiescence phase) to anagen (growing phase); also recorded: induces hair growth	comparable levels as Ruxolitinib and Tofacitinib	induces hair growth	potently inhibited the same dsRNA response as DI	inhibits JAK-STAT signaling most effectively		
		C[C@@H]1CCN(C(=O)CC#N)C[C@@H]1N(C)c1ncnc2[nH]ccc12 [Tofacitinib, reference compound]		comparable levels					
		C=C(CC(=O)OC)C(=O)OC [dimethyl itaconate, reference compound]				blunt dsRNA		potently induced this transition; also recorded: induces the transition	potently inhibits those markers
